The values that follow are results of earlier work, collected in patent US20050148561A1, “Novel triterpene derivatives, preparation thereof and use thereof” (Panacos Pharmaceuticals, Inc., priority 2003, published 2005).

SMILES strings stand for the structures. Read-outs that look alike come from different tables or passages of the source.

In this data set the test system is HIV-1.

Broadly, the EC50 is the midpoint of the concentration-response curve. Turning to `CC(C)[C@@H]1CC[C@]2(C(=O)O)CC[C@]3(C)C(CCC4[C@@]5(C)CC[C@H](O)C(C)(C)C5CC[C@]43C)C12` (stereo partly shown) [dihydrobetulinic acid], for the setting “H9 lymphocyte cells”, the T.I. was 14. In addition, the EC50 (unit inferred, read-out: EC50, anti-HIV activity) is 0.9 µM.
Regarding `CC(=O)[C@@H]1CC[C@]2(C(=O)O)CC[C@]3(C)[C@H](CC[C@@H]4[C@@]5(C)CC[C@H](O)C(C)(C)[C@@H]5CC[C@]43C)[C@@H]12` [platanic acid], for the setting “H9 lymphocyte cells”, the T.I. was 14. Under “H9 lymphocyte cells, read-out: EC50, inhibitory activity against HIV-1 replication”, the half-maximal effective concentration (EC50) is 6.5 µM.
